Measured values reported in patent US20250136606A1, “MODULATORS OF TRPML, THEIR COMPOSITIONS AND METHODS OF USE” (Caraway Therapeutics, Inc., priority 2021, published 2025).
pEC50: −log10 of the molar value.

Key:
Type in all cases: cell-based
Conditions in all cases: fluorescent calcium assay
TRPML3 = target: T1, TRPML3 (Homo sapiens, UniProt Q8TDD5); test: Fluorescent TRPML3 assay (performed as for TRPML1, substituting the TRPML3 subtype)
T1 construct: expressed in transfected cells
T1 sequence (Q8TDD5 1-553): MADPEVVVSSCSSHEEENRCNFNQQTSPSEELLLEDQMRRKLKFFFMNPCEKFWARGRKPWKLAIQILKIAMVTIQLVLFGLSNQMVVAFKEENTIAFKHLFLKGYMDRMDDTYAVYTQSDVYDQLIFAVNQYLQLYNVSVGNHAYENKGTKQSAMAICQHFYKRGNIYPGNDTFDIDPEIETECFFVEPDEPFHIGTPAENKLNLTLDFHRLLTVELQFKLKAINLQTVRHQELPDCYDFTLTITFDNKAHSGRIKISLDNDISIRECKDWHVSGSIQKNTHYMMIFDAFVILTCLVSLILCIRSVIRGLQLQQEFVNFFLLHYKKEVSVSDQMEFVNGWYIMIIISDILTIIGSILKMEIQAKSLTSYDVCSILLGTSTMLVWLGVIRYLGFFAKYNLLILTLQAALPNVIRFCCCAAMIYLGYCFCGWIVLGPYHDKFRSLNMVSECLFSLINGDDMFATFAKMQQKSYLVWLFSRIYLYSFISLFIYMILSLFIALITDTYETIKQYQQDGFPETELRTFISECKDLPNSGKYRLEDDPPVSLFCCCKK
Summary of the method: (§1)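 Compound series (final 6 nM-20 μM, half-log, triplicate) were added to Fluo4-AM-loaded HEK-293 Trex cells in 10 mM calcium Ringer's, expressing the human TRPML subtype after doxycycline 0.5 ug/mL induction. Percent activity versus positive/negative controls from 480/540 nm fluorescence; EC50 by non-linear regression.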

TRPML1 = TRPML1 (Homo sapiens, UniProt Q9GZU1); test: Fluorescent TRPML1 assay (Fluo4-AM calcium fluorescence in doxycycline-induced HEK-293 Trex cells)
Summary of the method: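 First, expression of surface-targeted mutant human TRPML1 is induced in HEK-293 Trex cells with 0.5 ug/mL doxycycline the day before. Next, cells take up 1 micromolar Fluo4-AM in Ringer's with 0.1% Pluronic. Finally, they are added to compounds (6 nanomolar–20 micromolar final) in 10 mM calcium Ringer's and fluorescence is read.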

TRPML2 = target: T2, TRPML2 (Homo sapiens, UniProt Q8IZK6); test: Fluorescent TRPML2 assay (performed as for TRPML1, substituting the TRPML2 subtype)
T2 construct: expressed in transfected cells
T2 sequence (Q8IZK6 1-566): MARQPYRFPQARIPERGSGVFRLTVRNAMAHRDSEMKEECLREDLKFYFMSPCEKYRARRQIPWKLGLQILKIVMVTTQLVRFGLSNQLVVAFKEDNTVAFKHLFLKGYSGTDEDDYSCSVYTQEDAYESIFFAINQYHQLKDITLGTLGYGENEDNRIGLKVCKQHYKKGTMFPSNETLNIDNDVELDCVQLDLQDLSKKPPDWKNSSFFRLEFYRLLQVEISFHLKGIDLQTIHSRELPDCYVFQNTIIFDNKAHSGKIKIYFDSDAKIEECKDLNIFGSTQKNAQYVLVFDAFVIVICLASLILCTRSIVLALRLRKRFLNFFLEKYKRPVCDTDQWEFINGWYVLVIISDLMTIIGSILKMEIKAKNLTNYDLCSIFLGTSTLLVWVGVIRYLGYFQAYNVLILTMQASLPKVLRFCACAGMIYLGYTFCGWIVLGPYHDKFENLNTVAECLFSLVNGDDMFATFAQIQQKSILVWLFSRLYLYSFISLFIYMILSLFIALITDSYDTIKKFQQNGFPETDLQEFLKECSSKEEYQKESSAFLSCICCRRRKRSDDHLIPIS
Summary of the method: as §1

Sequence of TRPML1 (Q9GZU1 whole entry L15A/L16A/L577A/L578A, form open): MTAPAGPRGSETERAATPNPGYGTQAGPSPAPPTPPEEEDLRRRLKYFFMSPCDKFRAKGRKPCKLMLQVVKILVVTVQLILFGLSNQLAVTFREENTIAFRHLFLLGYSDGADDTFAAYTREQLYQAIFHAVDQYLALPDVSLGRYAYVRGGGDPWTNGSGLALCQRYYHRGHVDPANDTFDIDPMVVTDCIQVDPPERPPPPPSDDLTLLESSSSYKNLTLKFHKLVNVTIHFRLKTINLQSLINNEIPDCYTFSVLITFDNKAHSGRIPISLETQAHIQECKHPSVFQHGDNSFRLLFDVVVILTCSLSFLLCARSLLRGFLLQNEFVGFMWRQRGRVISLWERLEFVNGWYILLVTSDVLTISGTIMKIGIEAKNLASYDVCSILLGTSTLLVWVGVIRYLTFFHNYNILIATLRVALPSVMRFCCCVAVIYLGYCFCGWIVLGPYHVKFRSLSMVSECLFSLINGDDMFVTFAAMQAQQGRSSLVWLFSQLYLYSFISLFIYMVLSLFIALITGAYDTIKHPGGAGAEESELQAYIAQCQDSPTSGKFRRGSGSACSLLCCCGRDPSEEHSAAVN

SMILES | pEC50 (TRPML3) | pEC50 (TRPML1) | pEC50 (TRPML2)
CCOC(=O)N1C[C@H](C)N(c2ncnc3c2c(-c2cccnc2)cn3-c2cccc(Cl)c2)C[C@H]1C [Compound 133, Ethyl (2R,5S)-4-(7-(3-chlorophenyl)-5-(pyridin-3-yl)-7H-pyrrolo[2,3-d]pyrimidin-4-yl)-2,5-dimethylpiperazine-1-carboxylate] | 5.70 to 6.30 | 6.30 to 7.00 | < 5.70
Cc1ccnc(-n2cc(-c3ccccc3F)c3c(N4C[C@@H](C)N(C(=O)OC(C)(C)C)C[C@@H]4C)ncnc32)c1 [Compound 136, tert-butyl (2R,5S)-4-(5-(2-fluorophenyl)-7-(4-methylpyridin-2-yl)-7H-pyrrolo[2,3-d]pyrimidin-4-yl)-2,5-dimethylpiperazine-1-carboxylate] | > 7.00 | > 7.00 | > 7.00
CCOC(=O)N1C[C@H](C)N(c2ncnc3c2c(-c2ccccc2F)cn3-c2ccccn2)C[C@H]1C [Compound 137, ethyl (2R,5S)-4-(5-(2-fluorophenyl)-7-(pyridin-2-yl)-7H-pyrrolo[2,3-d]pyrimidin-4-yl)-2,5-dimethylpiperazine-1-carboxylate] | 6.30 to 7.00 | 6.30 to 7.00 | 5.70 to 6.30
C[C@@H]1CN(C(=O)OC(C)(C)C(F)(F)F)CCN1c1ncnc2c1c(C1CC1)cn2-c1ccc(Cl)cc1 [Compound 141, 1,1,1-trifluoro-2-methylpropan-2-yl (R)-4-(7-(4-chlorophenyl)-5-cyclopropyl-7H-pyrrolo[2,3-d]pyrimidin-4-yl)-3-methylpiperazine-1-carboxylate] | > 7.00 | > 7.00 | 6.30 to 7.00
C[C@@H]1CN(c2ncnc3c2c(-c2ccccc2F)cn3-c2cccnc2)[C@@H](C)CN1C(=O)OC(C)(C)C [Compound 142, tert-butyl (2R,5S)-4-(5-(2-fluorophenyl)-7-(pyridin-3-yl)-7H-pyrrolo[2,3-d]pyrimidin-4-yl)-2,5-dimethylpiperazine-1-carboxylate] | > 7.00 | > 7.00 | 5.70 to 6.30
CCOC(=O)N1C[C@H](C)N(c2ncnc3c2c(-c2ccccc2F)cn3-c2cc(C)ccn2)C[C@H]1C [Compound 144, ethyl (2R,5S)-4-(5-(2-fluorophenyl)-7-(4-methylpyridin-2-yl)-7H-pyrrolo[2,3-d]pyrimidin-4-yl)-2,5-dimethylpiperazine-1-carboxylate] | > 7.00 | > 7.00 | 5.70 to 6.30
CC(C)(C)OC(=O)N1CCN(c2ncnc3c2c(C2CC2)cn3-c2ccc(Cl)c(F)c2)CC1 [Compound 145, tert-butyl 4-(7-(4-chloro-3-fluorophenyl)-5-cyclopropyl-7H-pyrrolo[2,3-d]pyrimidin-4-yl)piperazine-1-carboxylate] | > 7.00 | 6.30 to 7.00 | > 7.00
C[C@@H]1CN(C(=O)OC(C)(C)C)CCN1c1ncnc2c1c(C1CC1)cn2-c1ccc(Cl)cc1 [Compound 147, tert-butyl (R)-4-(7-(4-chlorophenyl)-5-cyclopropyl-7H-pyrrolo[2,3-d]pyrimidin-4-yl)-3-methylpiperazine-1-carboxylate] | > 7.00 | 6.30 to 7.00 | 6.30 to 7.00
C[C@H]1CN(C(=O)OC(C)(C)C(F)(F)F)CCN1c1ncnc2c1c(C1CC1)cn2-c1ccc(Cl)cc1 [Compound 148, 1,1,1-trifluoro-2-methylpropan-2-yl (S)-4-(7-(4-chlorophenyl)-5-cyclopropyl-7H-pyrrolo[2,3-d]pyrimidin-4-yl)-3-methylpiperazine-1-carboxylate] | > 7.00 | > 7.00 | 6.30 to 7.00
Cc1cncc(-n2cc(C3CC3)c3c(N4CCN(C(=O)OC(C)(C)C)C[C@@H]4C)ncnc32)c1 [Compound 150, tert-butyl (S)-4-(5-cyclopropyl-7-(5-methylpyridin-3-yl)-7H-pyrrolo[2,3-d]pyrimidin-4-yl)-3-methylpiperazine-1-carboxylate] | 6.30 to 7.00 | 6.30 to 7.00 | 5.70 to 6.30

Next, values leading:

pEC50 (TRPML3) | pEC50 (TRPML1) | pEC50 (TRPML2) | SMILES
> 7.00 | > 7.00 | 6.30 to 7.00 | C[C@@H]1CN(c2ncnc3c2c(-c2cccnc2)cn3-c2cccc(Cl)c2)[C@@H](C)CN1C(=O)OC(C)(C)C [Compound 131, tert-butyl (2R,5S)-4-(7-(3-chlorophenyl)-5-(pyridin-3-yl)-7H-pyrrolo[2,3-d]pyrimidin-4-yl)-2,5-dimethylpiperazine-1-carboxylate]
6.30 to 7.00 | > 7.00 | < 5.70 | CCOC(=O)N1C[C@H](C)N(c2ncnc3c2c(C2CC2)cn3-c2cccc(Cl)c2)C[C@H]1C [Compound 132, Ethyl (2R,5S)-4-(7-(3-chlorophenyl)-5-cyclopropyl-7H-pyrrolo[2,3-d]pyrimidin-4-yl)-2,5-dimethylpiperazine-1-carboxylate]
> 7.00 | > 7.00 | 6.30 to 7.00 | C[C@@H]1CN(c2ncnc3c2c(-c2ccccc2F)cn3-c2ccccn2)[C@@H](C)CN1C(=O)OC(C)(C)C [Compound 134, tert-butyl (2R,5S)-4-(5-(2-fluorophenyl)-7-(pyridin-2-yl)-7H-pyrrolo[2,3-d]pyrimidin-4-yl)-2,5-dimethylpiperazine-1-carboxylate]
> 7.00 | > 7.00 | 6.30 to 7.00 | COc1cncc(-n2cc(-c3ccccc3F)c3c(N4C[C@@H](C)N(C(=O)OC(C)(C)C)C[C@@H]4C)ncnc32)c1 [Compound 135, tert-butyl (2R,5S)-4-(5-(2-fluorophenyl)-7-(5-methoxypyridin-3-yl)-7H-pyrrolo[2,3-d]pyrimidin-4-yl)-2,5-dimethylpiperazine-1-carboxylate]
5.70 to 6.30 | 5.70 to 6.30 | 5.70 to 6.30 | CCOC(=O)N1C[C@H](C)N(c2ncnc3c2c(-c2ccccc2F)cn3-c2cncc(OC)c2)C[C@H]1C [Compound 138, ethyl (2R,5S)-4-(5-(2-fluorophenyl)-7-(5-methoxypyridin-3-yl)-7H-pyrrolo[2,3-d]pyrimidin-4-yl)-2,5-dimethylpiperazine-1-carboxylate]
> 7.00 | > 7.00 | > 7.00 | C[C@H]1CN(C(=O)OC(C)(C)C)CCN1c1ncnc2c1c(C1CC1)cn2-c1cccc(Cl)c1 [Compound 139, tert-butyl (S)-4-(7-(3-chlorophenyl)-5-cyclopropyl-7H-pyrrolo[2,3-d]pyrimidin-4-yl)-3-methylpiperazine-1-carboxylate]
> 7.00 | > 7.00 | > 7.00 | C[C@H]1CN(C(=O)OC(C)(C)C(F)(F)F)CCN1c1ncnc2c1c(C1CC1)cn2-c1cccc(Cl)c1 [Compound 140, 1,1,1-trifluoro-2-methylpropan-2-yl (S)-4-(7-(3-chlorophenyl)-5-cyclopropyl-7H-pyrrolo[2,3-d]pyrimidin-4-yl)-3-methylpiperazine-1-carboxylate]
5.70 to 6.30 | 6.30 to 7.00 | < 5.70 | CCOC(=O)N1C[C@H](C)N(c2ncnc3c2c(-c2ccccc2F)cn3-c2cccnc2)C[C@H]1C [Compound 143, ethyl (2R,5S)-4-(5-(2-fluorophenyl)-7-(pyridin-3-yl)-7H-pyrrolo[2,3-d]pyrimidin-4-yl)-2,5-dimethylpiperazine-1-carboxylate]
> 7.00 | 6.30 to 7.00 | 6.30 to 7.00 | CC(C)(C)OC(=O)N1CCN(c2ncnc3c2c(C2CC2)cn3-c2cc(F)cc(F)c2)CC1 [Compound 146, tert-butyl 4-(5-cyclopropyl-7-(3,5-difluorophenyl)-7H-pyrrolo[2,3-d]pyrimidin-4-yl)piperazine-1-carboxylate]
6.30 to 7.00 | 6.30 to 7.00 | 5.70 to 6.30 | Cc1cncc(-n2cc(C3CC3)c3c(N4CCN(C(=O)OC(C)(C)C)CC4)ncnc32)c1 [Compound 149, tert-butyl 4-(5-cyclopropyl-7-(5-methylpyridin-3-yl)-7H-pyrrolo[2,3-d]pyrimidin-4-yl)piperazine-1-carboxylate]
